Test results reported in PubChem BioAssay AID1963846 (Molecular Pharmacology Branch, DTP, NCI, 2024).

Test system: 454973-116-R2-J3-PDC complex spheroid viability
Assay: Anticancer human tumor 454973-116-R2-J3-PDC patient-derived pancreatic carcinoma cell line growth inhibition [POLQ]
Settings: for IC50: curve of first compound; for viability, T/C: stronger effect = lower value
Summary of the method: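 PDC + HUVEC + MSC complex spheroids; POLQ inhibitors ± partner drugs; top conc. at/near clinical Cmax, else 10 microM (SN-38 1 microM), half-log dilutions; 37 degrees C, 5% CO2.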

[1] = second compound 0.0316 µM, first compound 0.0316 µM
[2] = second compound 0.0316 µM, first compound 0.1 µM
[3] = second compound 0.0316 µM, first compound 0.316 µM
[4] = second compound 0.0316 µM, first compound 1 µM
[5] = second compound 0.0316 µM, first compound 3.16 µM
[6] = second compound 0.0316 µM, first compound 10 µM
[7] = second compound 0.1 µM, first compound 0.0316 µM
[8] = second compound 0.1 µM, first compound 0.1 µM
[9] = second compound 0.1 µM, first compound 0.316 µM
[10] = second compound 0.1 µM, first compound 1 µM
[11] = second compound 0.1 µM, first compound 3.16 µM
[12] = second compound 0.1 µM, first compound 10 µM
[13] = second compound 0.316 µM, first compound 0.0316 µM
[14] = second compound 0.316 µM, first compound 0.1 µM
[15] = second compound 0.316 µM, first compound 0.316 µM
[16] = second compound 0.316 µM, first compound 1 µM
[17] = second compound 0.316 µM, first compound 3.16 µM
[18] = second compound 0.316 µM, first compound 10 µM
[19] = second compound 1 µM, first compound 0.0316 µM
[20] = second compound 1 µM, first compound 0.1 µM
[21] = second compound 1 µM, first compound 0.316 µM
[22] = second compound 1 µM, first compound 1 µM
[23] = second compound 1 µM, first compound 3.16 µM
[24] = second compound 1 µM, first compound 10 µM
[25] = second compound 3.16 µM, first compound 0.0316 µM
[26] = second compound 3.16 µM, first compound 0.1 µM
[27] = second compound 3.16 µM, first compound 0.316 µM
[28] = second compound 3.16 µM, first compound 1 µM
[29] = second compound 3.16 µM, first compound 3.16 µM
[30] = second compound 3.16 µM, first compound 10 µM
[31] = second compound 10 µM, first compound 0.0316 µM
[32] = second compound 10 µM, first compound 0.1 µM
[33] = second compound 10 µM, first compound 0.316 µM
[34] = second compound 10 µM, first compound 1 µM
[35] = second compound 10 µM, first compound 3.16 µM
[36] = second compound 10 µM, first compound 10 µM
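Note: spheroids exposed to drugs for seven days before measurement.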
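Throughout, for viability, T/C: percent viability relative to DMSO vehicle control wells taken as 100%.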

For `C#Cc1c(F)ccc2cc(O)cc(-c3ncc4c(N5CC6CCC(C5)N6)nc(OCC56CCCN5CC(F)C6)nc4c3F)c12` (stereo unspecified) + Nc1ccc(C#CCN(C(=O)Cc2ncc(C(F)(F)F)cc2C(F)(F)F)c2ccc(F)cc2)nn1, the IC50 (second compound 0.0316 µM) was under 0.0316 µM, the IC50 (second compound 0.1 µM) was under 0.0316 µM and the IC50 (second compound 0.316 µM) was under 0.0316 µM. For the same compound, the IC50 (second compound 1 µM) was under 0.0316 µM, the IC50 (second compound 3.16 µM) was under 0.0316 µM and the IC50 (second compound 10 µM) was under 0.0316 µM. It also gave a viability, T/C [1] of 47.5%, a viability, T/C [2] of 36.1% and a viability, T/C [3] of 28.4%. For the same compound, the viability, T/C [4] was 24.1%, the viability, T/C [5] was 19% and the viability, T/C [6] was 18.1%. It also gave a viability, T/C [7] of 46.1%, a viability, T/C [8] of 36% and a viability, T/C [9] of 26%. The viability, T/C [10] was 24%, the viability, T/C [11] was 22.2% and the viability, T/C [12] was 18%. For the same compound, the viability, T/C [13] was 49.8%, the viability, T/C [14] was 35.8% and the viability, T/C [15] was 28.9%. The viability, T/C [16] was 25.5%, the viability, T/C [17] was 22.1% and the viability, T/C [18] was 19.6%. It also gave a viability, T/C [19] of 46.2%, a viability, T/C [20] of 35.1% and a viability, T/C [21] of 29.3%. It also gave a viability, T/C [22] of 25.4%, a viability, T/C [23] of 22.7% and a viability, T/C [24] of 18.8%. The viability, T/C [25] was 43.8%, the viability, T/C [26] was 35.4% and the viability, T/C [27] was 25.6%. The viability, T/C [28] was 25.2%, the viability, T/C [29] was 21.9% and the viability, T/C [30] was 18.5%. The viability, T/C [31] was 44.6%, the viability, T/C [32] was 39.3% and the viability, T/C [33] was 32.8%. For the same compound, the viability, T/C [34] was 28%, the viability, T/C [35] was 23.4% and the viability, T/C [36] was 23.5%.
For `CCc1cc2c(N3CCc4c(cc(Cn5ccnc5)cc4-c4cn(C)nc4C(F)(F)F)C3=O)cc(C)nc2c(OC)n1` + Nc1ccc(C#CCN(C(=O)Cc2ncc(C(F)(F)F)cc2C(F)(F)F)c2ccc(F)cc2)nn1, the IC50 (second compound 0.0316 µM) was over 10 µM, the IC50 (second compound 0.1 µM) was over 10 µM and the IC50 (second compound 0.316 µM) was over 10 µM. It also gave an IC50 (second compound 1 µM) of over 10 µM, an IC50 (second compound 3.16 µM) of over 10 µM and an IC50 (second compound 10 µM) of over 10 µM. The viability, T/C [1] was 99.6%, the viability, T/C [2] was 87.8% and the viability, T/C [3] was 73.5%. For the same compound, the viability, T/C [4] was 72.2%, the viability, T/C [5] was 64.4% and the viability, T/C [6] was 56.5%. The viability, T/C [7] was 99.1%, the viability, T/C [8] was 88.4% and the viability, T/C [9] was 82.6%. For the same compound, the viability, T/C [10] was 74.2%, the viability, T/C [11] was 63.2% and the viability, T/C [12] was 56.9%. The viability, T/C [13] was 96.2%, the viability, T/C [14] was 91.1% and the viability, T/C [15] was 78.9%. It also gave a viability, T/C [16] of 79.2%, a viability, T/C [17] of 70.8% and a viability, T/C [18] of 55%. For the same compound, the viability, T/C [19] was 97.7%, the viability, T/C [20] was 87.3% and the viability, T/C [21] was 81.6%. The viability, T/C [22] was 79%, the viability, T/C [23] was 63% and the viability, T/C [24] was 50.9%. The viability, T/C [25] was 101%, the viability, T/C [26] was 95.3% and the viability, T/C [27] was 90.8%. It also gave a viability, T/C [28] of 84.5%, a viability, T/C [29] of 68.3% and a viability, T/C [30] of 59.6%. For the same compound, the viability, T/C [31] was 100%, the viability, T/C [32] was 114% and the viability, T/C [33] was 86.3%. The viability, T/C [34] was 78.6%, the viability, T/C [35] was 80.1% and the viability, T/C [36] was 56.8%.
`O=C(Nc1ccc(O)c(NS(=O)(=O)c2ccc(F)cc2)c1)c1ccc(-c2ccccc2)cc1` + Nc1ccc(C#CCN(C(=O)Cc2ncc(C(F)(F)F)cc2C(F)(F)F)c2ccc(F)cc2)nn1 gave an IC50 (second compound 0.0316 µM) of over 10 µM, an IC50 (second compound 0.1 µM) of over 10 µM and an IC50 (second compound 0.316 µM) of over 10 µM. For the same compound, the IC50 (second compound 1 µM) was over 10 µM, the IC50 (second compound 3.16 µM) was over 10 µM and the IC50 (second compound 10 µM) was over 10 µM. For the same compound, the viability, T/C [1] was 109%, the viability, T/C [2] was 107% and the viability, T/C [3] was 108%. For the same compound, the viability, T/C [4] was 114%, the viability, T/C [5] was 108% and the viability, T/C [6] was 86.5%. It also gave a viability, T/C [7] of 101%, a viability, T/C [8] of 107% and a viability, T/C [9] of 110%. For the same compound, the viability, T/C [10] was 103%, the viability, T/C [11] was 103% and the viability, T/C [12] was 89.9%. It also gave a viability, T/C [13] of 105%, a viability, T/C [14] of 104% and a viability, T/C [15] of 109%. The viability, T/C [16] was 107%, the viability, T/C [17] was 110% and the viability, T/C [18] was 89.2%. It also gave a viability, T/C [19] of 110%, a viability, T/C [20] of 108% and a viability, T/C [21] of 111%. The viability, T/C [22] was 112%, the viability, T/C [23] was 109% and the viability, T/C [24] was 80.9%. It also gave a viability, T/C [25] of 107%, a viability, T/C [26] of 106% and a viability, T/C [27] of 106%. It also gave a viability, T/C [28] of 120%, a viability, T/C [29] of 123% and a viability, T/C [30] of 86.8%. For the same compound, the viability, T/C [31] was 123%, the viability, T/C [32] was 112% and the viability, T/C [33] was 112%. For the same compound, the viability, T/C [34] was 120%, the viability, T/C [35] was 109% and the viability, T/C [36] was 85.5%.
